Assay results published in US7528144B2, “Molecules and methods for fluorescence microscopy” (WiSys Technology Foundation, Inc., priority 2005, dated 2009).

Legend:
mitochondria = test: Colocalization with Mitotracker Red by fluorescence microscopy; assay type: cell-based
Description: (§1) A. LTI studies: Aliquots of THP-1 cells (Cell densities were 1×10^6 cells per mL) were exposed to either 100 nM InstantLyso LLT-1 in RPMI 1640 medium with 10% FCS at 37° C., 5% CO2, both InstantLyso LLT-1 and 100 nM Lysotracker Red (Molecular Probes, Eugene Oreg.), or both InstantLyso LLT-1 and at a concentration of 75 nM. Mitotracker Red (Molecular Probes). In each case, medium is first pipetted off cells, then warmed medium containing dyes is added. The cell suspension is incubated for 30 minutes at 37° C. and examined by microscopy.
(§2) B. InstantLipo Sep-1 studies: Aliquots of either THP-1 cells or adherent human fibroblasts were exposed to either 200 nM InstantLipo Sep-1in RPMI 1640 medium with 10% FCS at 37 C, 5% CO2, both InstantLipo Sep-1and Vybrant lipid raft kit (Molecular Probes, used according to the manufacturer's instructions), both InstantLipo Sep-1and Mitotracker Red (Molecular Probes, used according to the manufacturer's instructions), or both InstantLipo Sep-1and Lysotracker Red. Cells were incubated at 37° C. for at least 20 minutes. […] Some of the punctate structures moved rapidly when observed by confocal microscopy in living cells. Conditions for colocalization are as follows: Live THP-1 Leukemic monocytes were grown in RPMI 1640 medium at 37 C and 5% CO2 for 5 days. […]

lysosomes = test: Colocalization with Lysotracker Red by fluorescence microscopy; assay type: cell-based; details: live THP-1 cells
Description: as §1
Colocalization of InstantLyso LLT-1 with Lysotracker red were performed under the following conditions: Live THP-1 Leukemic monocytes were grown in RPMI 1640 medium at 37C. and 5% CO2 for 5 days. 2 mL of cells were allowed to adhere to a Biocoat (polylysine coated) glass bottomed cell culture plate for 30 minutes at 37C. The old medium was removed and 2 mLs of 37 C fresh media containing 1 00 nM InstantLyso LLT-1 (from 10 μM DMSO stock) and 100 nM Lysotracker Red (from 1 mM DMSO stock) was added. Cells were incubated at 37C for 30 minutes. And visualized with an inverted epifluorescence microscope at 600× using a blue/purple (450/50 ex and 510/50 em with D480 mirror) cube for InstantLyso LLT-1 and a green (560/50 ex and 646/40 em with D595 mirror). Exposure was automatic. Temperature was ambient. […]

cholesterol-rich domains = test: Staining of fibroblasts treated with cholesterol transport inhibitor U18666A; assay type: cell-based, human; details: foreskin fibroblasts, 3 μg/mL U18666A overnight, 150 nM dye, 30 minutes
Description: Similarly, 3 μg/mL from H20 stock of aminoesterol U18666A (Calbiochem)) is often used with fibroblasts to inhibit intracellular cholesterol transport and leads to accumulation of cholesterol in nuclear regions (C. F. Roff, E. Goldin, M. E. Comly, A. Cooney, A. Brown, M. T. Vanier, S. P. Miller, R. O. Brady and P. G. Pentchev, Dev Neurosci 13 (1991) 315-9). Foreskin fibroblasts were grown on coverslips for 1 day in EMEM. Medium was removed and replaced with 2 mL fresh EMEM to ensure consistent treatment as cells that were treated with U18666A. Cells were incubated at 37° C. and 5% CO2 overnight. Medium was removed and replaced with 2 mL EMEM containing 200 nM InstantLipo Sep-1. Cells were then incubated at 37° C. and 5% CO2 for 30 minutes to allow dye to load. Cells were imaged using an epifluorescence microscope at 1000× magnification while excited with a purple cube.
Foreskin fibroblasts were grown on coverslips for 3 days in EMEM. Medium was removed and replaced with 2 mL EMEM containing 3μg/mL U18666A. Cells were incubated at 37° C. and 5% CO2 overnight. Medium was removed and replaced with 2 mL EMEM containing 150 nM InstantGolgi McN-1. Cells were then incubated at 37° C. and 5% CO2 for 30 minutes to allow dye to load. […] This is consistent with the staining of more numerous and pathological cholesterol-rich domains and vesicles. […]

THP-1 cells [1] = details: FIG. 24, concentration not given
THP-1 cells [2] = test: Staining pattern in live THP-1 cells; assay type: cell-based; details: THP-1 monocytic cells, 100 nM dye, 30 minutes
Description: as §1, §2

SMILES: CCCCCCN1C(=O)c2cccc3c(NCCNS(=O)(=O)c4ccc(C)cc4)ccc(c23)C1=O [InstantGolgi McN-1, N-hexyl-4-[2-(4-toluensulfonyl)aminoethyl]amino-1,8-naphthalimide]
- colocalization with mitochondria (MitoTracker Red) (mitochondria; live THP-1 cells, 150 nM dye + 50 nM MitoTracker Red): limited colocalization with lysosomes and mitochondria
- colocalization with lysosomes (Lysotracker Red) (lysosomes; 150 nM dye + 75 nM Lysotracker Red): limited colocalization with lysosomes and mitochondria
- staining change after U18666A (cholesterol-rich domains): more punctate bright spots in cells after inhibition
- cytotoxicity / viability (Trypan blue) (THP-1 cells [1]): no significant cytotoxicity

SMILES: CCCCCCN1C(=O)c2cccc3c(NCCN)ccc(c23)C1=O [InstantLyso LLT-1, 6-(2-aminoethyl)amino-2-hexyl-1H-benz[de]isoquinoline-1,3-(2H)-dione]
- co-localization with Mitotracker Red (mitochondria; THP-1 cells, 100 nM dye + 75 nM Mitotracker Red, 30 minutes): failed to exhibit such co-localization
- co-localization with Lysotracker Red (lysosomes; 100 nM dye + 100 nM Lysotracker Red, 30 minutes): positive co-localization
- staining pattern (THP-1 cells [2]): staining in punctate structures
